Measurements reported in patent US20120121545A1, “Pharmaceutical Composition For Bone Disease Treatment Or Countering Inflammation, Comprising Cartilage Stem Cells As An Active Principle” (CoreStem Co., Ltd., priority 2009, published 2012).

Columns and labels:
Type in all cases: in vivo, Sprague-Dawley rats
[1] = test system: osteoarthritis-induced rats; test: Histopathological analysis of knee cartilage: Mankin score; details: diclofenac sodium 2 mg/kg subcutaneously once a day for 84 days
Method: (§1) One hundred and twenty (120) 6-week-old male Sprague-Dawley rats (SLC, Japan) were used for test after accommodation for 7 days. All the test animals were kept in a polycarbonate cage, four or five each, and reared in a laboratory with temperature (20-25° C.) and humidity (40-45%) controlled. The light/dark cycle was 12 hours:12 hours, and feed (Samyang Corporation, Korea) and drinking water well provided freely. All the test animals had been fasted for at least 18 hours before sacrificing. They were treated according to “Guide for the Care and Use of Laboratory Animals by Institute of Laboratory Animal Resources, Commission on Life Science, National Research Council, USA on 1996, Washington D.C.”. On day 7 after joint surgery, the rats were grouped into 7 groups as described in Table 4 based on joint thickness and body weight. 8 rats were selected from each group (56 in total) for test.
(§2) The cells were suspended in CSBM at four different concentrations (high concentration: 9.6×10^6 cells/rat, intermediate high concentration: 4.8×10^6 cells/rat, intermediate low concentration: 2.4×10^6 cells/rat, low concentration: 1.2×10^6 cells/rat). […] For the normal group and the osteoarthritis-induced control group, only the CSBM was administered into the articular capsule.
For histopathological observation and analysis of the cartilage Mankin score and cartilage thickness were measured (Table 9). Mankin score is frequently used to evaluate arthritis. A higher score is known to be related with higher inducement of osteoarthritis (Armstrong et al., 1994; Rezende et al., 2006).
The articular capsule taken from the knee joint of each control group and test group was fixed for 5 days in 10% neutral-buffered formalin (NBF) and decalcified in decalcifying solution (24.4% formic acid, and 0.5 N sodium hydroxide). The decalcifying solution was replaced once a day for 5 days. After the decalcification, the median joint parts of the articular capsule were cut transversely and embedded in paraffin. After preparing 3-4 μm thick tissue sections, followed by deparaffinization and hydration, the cartilage was observed after hematoxylin & eosin (H&E) staining and safranin O staining (Camplejohn and Allard, 1988; Kahveci et al., 2000; Tran et al., 2000).
Mankin score was measured by comparing damage to the knee joint tissue with that of the normal control group. Cartilage thickness of the tibia and the femur was measured by histomorphometry using an automatic image analyzer (DMI-300, DMI, Korea).
Mankin Score is Given by the Sum.
Percent change (%) between the cell administration group and the osteoarthritis-induced control group=[(Value of the cell administration group−Value of the osteoarthritis-induced control group)/Value of the osteoarthritis-induced control group]×100 Equation 2

[2] = test system: osteoarthritis-induced rats; test: Growth of chondrocytes in knee cartilage (BrdU labelling); details: diclofenac sodium 2 mg/kg subcutaneously once a day for 84 days
Method: as §1, §2
Chondrocytes growing in the articular capsule were labeled with BrdU in order to investigate their growth due to the administration of the cartilage-derived stem cells. Since the cells labeled with BrdU are those grown after the injection of BrdU, the growth of chondrocytes can be analyzed.
5-Bromo-2′-deoxyuridine (50 mg/kg, BrdU, MP Biomedicals, OH, USA) diluted in physiological saline to a concentration of 2 mL/kg was intraabdominally injected once 72 hours before the sacrificing of the rats of the control groups and test groups. Then, immunohistochemical staining was performed using BrdU antibody (Hwang et al., 2000; Moore et al., 2005; Ganey et al., 2003; Ito et al., 1998; Tang et al., 2007).
The expression pattern of BrdU was investigated using the Vector Elite ABC kit (Vector Lab. Inc., CA., USA). After washing the tissue with DPBS, reaction was performed in 3% hydrogen peroxide (H2O2) solution for 30 minutes at room temperature. After washing with DPBS, reaction was performed for 30 minutes using normal horse serum (1:100, Vector Lab. Inc., CA, USA) in order to prevent nonspecific reaction that might occur during the staining. […] The number of cells responding to BrdU antibody by 10% or more was counted. From a total of 100 chondrocytes on the articular surface of the tibia and the femur, the percentage of BrdU-positive cells was measured using an automatic image analyzer. […]

[3] = test system: osteoarthritis-induced rats; test: Change in maximum knee joint angle, osteoarthritis-induced rats; details: diclofenac sodium 2 mg/kg subcutaneously once a day for 84 days; after 84 days
Method: One hundred and twenty (120) 6-week-old male Sprague-Dawley rats (SLC, Japan) were used for test after accommodation for 7 days. All the test animals were kept in a polycarbonate cage, four or five each, and reared in a laboratory with temperature (20-25° C.) and humidity (40-45%) controlled. The light/dark cycle was 12 hours:12 hours, and feed (Samyang Corporation, Korea) and drinking water well provided freely. All the test animals had been fasted for at least 18 hours before sacrificing. They were treated according to “Guide for the Care and Use of Laboratory Animals by Institute of Laboratory Animal Resources, Commission on Life Science, National Research Council, USA on 1996, Washington D.C.”. […]
The administration groups of the drug and cell were sacrificed after 84 days. After taking out the right hind leg from the hip joint and removing nearby skin, connective tissues and muscles, the maximum knee joint angle was measured with the theoretical maximum as 0°. […]
Percent change between the normal control group and the osteoarthritis-induced control group was calculated by Equation 1 in order to evaluate the degree of inducement of osteoarthritis. Also, percent change between the cell administration group and the osteoarthritis-induced control group was calculated by Equation 2 in order to more clearly represent the efficacy of the administered cells. […]

[4] = test system: osteoarthritis-induced rats; test: Knee cartilage thickness by histomorphometry; details: diclofenac sodium 2 mg/kg subcutaneously once a day for 84 days
Method: The articular capsule taken from the knee joint of each control group and test group was fixed for 5 days in 10% neutral-buffered formalin (NBF) and decalcified in decalcifying solution (24.4% formic acid, and 0.5 N sodium hydroxide). The decalcifying solution was replaced once a day for 5 days. After the decalcification, the median joint parts of the articular capsule were cut transversely and embedded in paraffin. […]
Mankin score was measured by comparing damage to the knee joint tissue with that of the normal control group. Cartilage thickness of the tibia and the femur was measured by histomorphometry using an automatic image analyzer (DMI-300, DMI, Korea). […]

[5] = test system: osteoarthritis-induced rats; test: Change in knee joint thickness, osteoarthritis-induced rats; details: diclofenac sodium 2 mg/kg subcutaneously once a day for 84 days
Method: One hundred and twenty (120) 6-week-old male Sprague-Dawley rats (SLC, Japan) were used for test after accommodation for 7 days. All the test animals were kept in a polycarbonate cage, four or five each, and reared in a laboratory with temperature (20-25° C.) and humidity (40-45%) controlled. The light/dark cycle was 12 hours:12 hours, and feed (Samyang Corporation, Korea) and drinking water well provided freely. All the test animals had been fasted for at least 18 hours before sacrificing. They were treated according to “Guide for the Care and Use of Laboratory Animals by Institute of Laboratory Animal Resources, Commission on Life Science, National Research Council, USA on 1996, Washington D.C.”. On day 7 after joint surgery, the rats were grouped into 7 groups as described in Table 4 based on joint thickness and body weight. 8 rats were selected from each group (56 in total) for test. […] The joint thickness of the rats in the control groups and test groups was measured using calipers. […] Percent change between the normal control group and the osteoarthritis-induced control group was calculated by Equation 1 in order to evaluate the degree of inducement of osteoarthritis. Also, percent change between the cell administration group and the osteoarthritis-induced control group was calculated by Equation 2 in order to more clearly represent the efficacy of the administered cells. […]

## O=C(O)Cc1ccccc1Nc1c(Cl)cccc1Cl [Control drug, diclofenac sodium]
[1]
  Mankin score of the femur, decrease as compared to the osteoarthritis-induced control group: 27.85%
  Mankin score of the femur: Clones: 2.38 ± 0.92
  Mankin score of the femur: Hypocellularity: 1.38 ± 0.52
  Mankin score of the femur: Safranin O: 1.25 ± 0.46
  Mankin score of the femur: Sum (Max = 12): 7.13 ± 1.36
  Mankin score of the femur: Surface: 2.13 ± 0.35
  Mankin score of the tibia, decrease as compared to the osteoarthritis-induced control group: 20.59%
  Mankin score of the tibia: Clones: 1.75 ± 0.71
  Mankin score of the tibia: Hypocellularity: 1.63 ± 0.52
  Mankin score of the tibia: Safranin O: 1.38 ± 0.74
  Mankin score of the tibia: Sum (Max = 12): 6.75 ± 1.16
  Mankin score of the tibia: Surface: 2.00 ± 0.53
[2]
  Number of BrdU-positive cells/100 chondrocytes, Femur: 8.63 ± 4.03 /100 chondrocytes
  Number of BrdU-positive cells/100 chondrocytes, Tibia: 8.13 ± 3.52 /100 chondrocytes
  number of BrdU-positive cells on the articular surface of the femur, increase as compared to the osteoarthritis-induced control group: 9.52%
  number of BrdU-positive cells on the articular surface of the tibia, increase as compared to the osteoarthritis-induced control group: 1.56%
[3]
  Maximum knee joint angle: 60.75 ± 6.78 °
  knee joint angle decreased as compared to the normal control group: 18.18%
[4]
  Knee cartilage thickness, Femur: 409.48 ± 69.80
  cartilage thickness of the femur, increase as compared to the osteoarthritis-induced control group: 35.11%
  cartilage thickness of the tibia, increase as compared to the osteoarthritis-induced control group: 68.81%
[5]
  reduced knee joint thickness as compared to the osteoarthritis control group: 5.79%
